Laboratory results: patent US9956187B2 (priority 2014, dated 2018)
Where a name gives a salt, the structure may show the parent alone.

Assays:
5-HT1A = molecular target: T1, 5-HT1A (Homo sapiens, UniProt P08908); assay: Primary radioligand binding screen
T1 construct: expressed in transfected cells
Description: (§1) Evidence for interaction was based on the inhibition of the reference ligand-binding signal. […] Briefly, 50 μL aliquots of radioactive ligand (5 nM) were added to wells of a 96-well plate, which contained 25 μL of the reference or test ligands. We employed transfected cell lines expressing mainly human (unless otherwise specified) recombinant receptors, monoamine transporters, or ion channels for crude membrane preparation. Detailed information about our membrane preparation is well known in the art and can be obtained from publicly available protocol online. Crude membrane fractions containing the receptors were resuspended in standard binding buffer and 50 μL aliquots added to each well. The reactions were incubated at room temperature for 1.5 hours to allow for radioligand binding equilibration. Bound radioactivity was harvested by rapid filtration through a 0.3% polyethyleneimine-treated, 96-well filter mats using a 96-well Filtermate harvester. The dried filters were treated with melted scintillant and a Microbeta scintillation counter was utilized to measure the radioactivity retained on the filter.

5-HT1B = molecular target: T2, 5-HT1B (Homo sapiens, UniProt P28222); assay: Primary radioligand binding screen
T2 construct: expressed in transfected cells
Description: as §1

5-HT1D = molecular target: T3, 5-HT1D (Homo sapiens, UniProt P28221); assay: Primary radioligand binding screen
T3 construct: expressed in transfected cells
Description: as §1

5-HT1E = molecular target: T4, 5-HT1E (Homo sapiens, UniProt P28566); assay: Primary radioligand binding screen
T4 construct: expressed in transfected cells
T4 sequence (P28566 whole entry): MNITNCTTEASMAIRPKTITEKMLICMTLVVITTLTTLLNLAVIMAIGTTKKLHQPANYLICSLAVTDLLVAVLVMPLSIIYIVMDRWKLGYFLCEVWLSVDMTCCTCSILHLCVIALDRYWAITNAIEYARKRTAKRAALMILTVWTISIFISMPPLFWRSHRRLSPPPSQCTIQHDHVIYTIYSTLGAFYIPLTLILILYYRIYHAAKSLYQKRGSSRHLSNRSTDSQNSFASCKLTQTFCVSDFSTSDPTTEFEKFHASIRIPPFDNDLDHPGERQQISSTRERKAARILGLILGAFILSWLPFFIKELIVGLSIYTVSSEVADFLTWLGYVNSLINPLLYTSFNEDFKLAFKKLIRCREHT
Description: as §1

5-HT2A = molecular target: T5, 5-HT2A (Homo sapiens, UniProt P28223); assay: Primary radioligand binding screen
T5 construct: expressed in transfected cells
T5 sequence (P28223 whole entry): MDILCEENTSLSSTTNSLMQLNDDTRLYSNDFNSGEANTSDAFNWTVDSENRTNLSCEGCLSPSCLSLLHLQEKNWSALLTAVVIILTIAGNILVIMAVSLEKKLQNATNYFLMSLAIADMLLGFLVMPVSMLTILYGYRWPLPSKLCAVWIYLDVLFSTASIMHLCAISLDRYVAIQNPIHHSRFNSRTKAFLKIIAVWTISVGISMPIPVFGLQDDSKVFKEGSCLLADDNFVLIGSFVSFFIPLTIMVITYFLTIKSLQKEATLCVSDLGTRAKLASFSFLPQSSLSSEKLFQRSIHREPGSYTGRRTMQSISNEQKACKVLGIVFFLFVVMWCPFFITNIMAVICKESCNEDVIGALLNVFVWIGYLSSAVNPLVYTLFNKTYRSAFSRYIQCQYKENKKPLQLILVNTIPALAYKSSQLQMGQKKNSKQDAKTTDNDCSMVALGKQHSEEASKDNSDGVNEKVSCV
Description: as §1

5-HT2B = molecular target: T6, 5-HT2B (Homo sapiens, UniProt P41595); assay: Primary radioligand binding screen
T6 construct: expressed in transfected cells
Description: as §1

5-HT2C = molecular target: T7, 5-HT2C (Homo sapiens, UniProt P28335); assay: Primary radioligand binding screen
T7 construct: expressed in transfected cells
Description: as §1

5-HT3 = molecular target: T8, 5-HT3 (Homo sapiens, UniProt P46098); assay: Primary radioligand binding screen
T8 construct: expressed in transfected cells
Description: as §1

5-HT6 = molecular target: T9, 5-HT6 (Homo sapiens, UniProt P50406); assay: Primary radioligand binding screen
T9 construct: expressed in transfected cells
T9 sequence (P50406 whole entry): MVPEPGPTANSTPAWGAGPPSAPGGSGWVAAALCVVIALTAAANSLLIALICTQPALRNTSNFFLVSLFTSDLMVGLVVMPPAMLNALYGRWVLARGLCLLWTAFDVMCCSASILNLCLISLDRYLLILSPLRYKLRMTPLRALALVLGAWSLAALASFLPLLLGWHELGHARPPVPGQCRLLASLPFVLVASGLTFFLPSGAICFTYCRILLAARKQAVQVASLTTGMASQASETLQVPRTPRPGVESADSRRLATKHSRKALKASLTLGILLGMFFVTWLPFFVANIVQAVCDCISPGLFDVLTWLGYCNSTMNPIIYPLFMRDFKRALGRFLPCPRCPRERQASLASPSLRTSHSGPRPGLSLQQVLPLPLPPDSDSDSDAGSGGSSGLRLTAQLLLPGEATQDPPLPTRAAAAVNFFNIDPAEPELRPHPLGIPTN
Description: as §1

5-HT7 = molecular target: T10, 5-HT7 (Homo sapiens, UniProt P34969); assay: Primary radioligand binding screen
T10 construct: expressed in transfected cells
T10 sequence (P34969 whole entry): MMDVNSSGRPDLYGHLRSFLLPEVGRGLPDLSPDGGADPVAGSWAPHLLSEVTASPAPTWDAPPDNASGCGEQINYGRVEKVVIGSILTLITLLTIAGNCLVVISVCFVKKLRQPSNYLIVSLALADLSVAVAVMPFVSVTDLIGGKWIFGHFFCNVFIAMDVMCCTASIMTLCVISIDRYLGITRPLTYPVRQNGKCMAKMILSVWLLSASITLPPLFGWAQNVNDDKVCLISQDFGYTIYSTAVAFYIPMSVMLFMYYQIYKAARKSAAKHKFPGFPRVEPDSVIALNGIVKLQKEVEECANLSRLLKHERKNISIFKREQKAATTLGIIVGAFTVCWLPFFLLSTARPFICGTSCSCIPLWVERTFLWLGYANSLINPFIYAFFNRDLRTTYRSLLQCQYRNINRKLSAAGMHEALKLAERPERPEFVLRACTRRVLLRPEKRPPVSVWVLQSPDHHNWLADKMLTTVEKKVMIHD
Description: as §1

5-hT5A = molecular target: T11, 5-hT5A (Homo sapiens, UniProt P47898); assay: Primary radioligand binding screen
T11 construct: expressed in transfected cells
Description: as §1

Alpha1A = molecular target: T12, Alpha1A (Homo sapiens, UniProt P35348); assay: Primary radioligand binding screen
T12 construct: expressed in transfected cells
Description: as §1

Alpha1B = molecular target: T13, Alpha1B (Homo sapiens, UniProt P35368); assay: Primary radioligand binding screen
T13 construct: expressed in transfected cells
Description: as §1

Alpha1D = molecular target: T14, Alpha1D (Homo sapiens, UniProt P25100); assay: Primary radioligand binding screen
T14 construct: expressed in transfected cells
Description: as §1

Alpha2A = molecular target: T15, Alpha2A (Homo sapiens, UniProt P08913); assay: Primary radioligand binding screen
T15 construct: expressed in transfected cells
Description: as §1

Alpha2B = molecular target: T16, Alpha2B (Homo sapiens, UniProt P18089); assay: Primary radioligand binding screen
T16 construct: expressed in transfected cells
Description: as §1

Alpha2C = molecular target: T17, Alpha2C (Homo sapiens, UniProt P18825); assay: Primary radioligand binding screen
T17 construct: expressed in transfected cells
Description: as §1

Beta1 = molecular target: T18, Beta1 (Homo sapiens, UniProt P08588); assay: Primary radioligand binding screen
T18 construct: expressed in transfected cells
Description: as §1

Beta2 = molecular target: T19, Beta2 (Homo sapiens, UniProt P07550); assay: Primary radioligand binding screen
T19 construct: expressed in transfected cells
Description: as §1

Beta3 = molecular target: T20, Beta3 (Homo sapiens, UniProt P13945); assay: Primary radioligand binding screen
T20 construct: expressed in transfected cells
Description: as §1

D1 = molecular target: T21, D1 (Homo sapiens, UniProt P21728); assay: Primary radioligand binding screen
T21 construct: expressed in transfected cells
T21 sequence (P21728 whole entry): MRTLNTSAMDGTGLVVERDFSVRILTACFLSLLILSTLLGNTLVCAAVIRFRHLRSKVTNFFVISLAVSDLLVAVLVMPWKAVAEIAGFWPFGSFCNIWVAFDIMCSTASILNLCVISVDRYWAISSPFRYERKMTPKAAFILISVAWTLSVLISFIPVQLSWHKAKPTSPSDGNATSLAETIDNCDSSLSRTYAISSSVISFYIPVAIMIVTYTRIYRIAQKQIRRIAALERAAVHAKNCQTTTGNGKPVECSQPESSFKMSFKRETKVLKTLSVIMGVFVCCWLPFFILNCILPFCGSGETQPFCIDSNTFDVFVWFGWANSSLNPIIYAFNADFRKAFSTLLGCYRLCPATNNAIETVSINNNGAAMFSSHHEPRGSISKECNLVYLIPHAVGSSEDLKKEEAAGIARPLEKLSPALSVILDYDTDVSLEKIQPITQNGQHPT
Description: as §1

D2 = molecular target: T22, D2 (Homo sapiens, UniProt P14416); assay: Primary radioligand binding screen
T22 construct: expressed in transfected cells
T22 sequence (P14416 whole entry): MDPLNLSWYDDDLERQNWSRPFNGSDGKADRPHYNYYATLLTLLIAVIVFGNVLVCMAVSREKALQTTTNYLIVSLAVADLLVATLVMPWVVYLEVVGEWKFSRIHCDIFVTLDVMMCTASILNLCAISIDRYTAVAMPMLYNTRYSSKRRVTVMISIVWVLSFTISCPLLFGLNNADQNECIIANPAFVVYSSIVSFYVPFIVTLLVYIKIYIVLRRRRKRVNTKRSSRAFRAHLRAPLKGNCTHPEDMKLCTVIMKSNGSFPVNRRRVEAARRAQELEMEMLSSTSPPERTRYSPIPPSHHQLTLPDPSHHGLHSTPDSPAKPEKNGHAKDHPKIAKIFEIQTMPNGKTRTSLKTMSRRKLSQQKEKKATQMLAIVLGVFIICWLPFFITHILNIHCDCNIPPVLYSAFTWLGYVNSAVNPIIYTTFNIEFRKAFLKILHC
Description: as §1

D3 = molecular target: T23, D3 (Homo sapiens, UniProt P35462); assay: Primary radioligand binding screen
T23 construct: expressed in transfected cells
Description: as §1

D4 = molecular target: T24, D4 (Homo sapiens, UniProt P21917); assay: Primary radioligand binding screen
T24 construct: expressed in transfected cells
Description: as §1

D5 = molecular target: T25, D5 (Homo sapiens, UniProt P21918); assay: Primary radioligand binding screen
T25 construct: expressed in transfected cells
T25 sequence (P21918 whole entry): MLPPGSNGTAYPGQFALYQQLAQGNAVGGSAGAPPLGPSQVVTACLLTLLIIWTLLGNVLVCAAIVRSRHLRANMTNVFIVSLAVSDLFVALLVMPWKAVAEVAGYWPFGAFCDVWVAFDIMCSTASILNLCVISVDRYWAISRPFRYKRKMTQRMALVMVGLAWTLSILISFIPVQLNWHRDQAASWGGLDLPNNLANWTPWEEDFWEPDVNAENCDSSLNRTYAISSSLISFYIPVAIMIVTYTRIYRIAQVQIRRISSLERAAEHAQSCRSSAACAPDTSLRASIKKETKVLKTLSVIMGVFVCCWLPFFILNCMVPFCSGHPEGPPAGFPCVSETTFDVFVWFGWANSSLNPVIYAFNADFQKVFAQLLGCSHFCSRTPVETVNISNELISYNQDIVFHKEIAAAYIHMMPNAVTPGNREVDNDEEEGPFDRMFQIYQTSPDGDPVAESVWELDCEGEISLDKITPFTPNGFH
Description: as §1

DAT = molecular target: T26, DAT (Homo sapiens, UniProt Q01959); assay: Primary radioligand binding screen
T26 construct: expressed in transfected cells
Description: as §1

DOR = molecular target: T27, DOR (Homo sapiens, UniProt P41143); assay: Primary radioligand binding screen
T27 construct: expressed in transfected cells
Description: as §1

H2 = molecular target: T28, H2 (Homo sapiens, UniProt P25021); assay: Primary radioligand binding screen
T28 construct: expressed in transfected cells
T28 sequence (P25021 whole entry): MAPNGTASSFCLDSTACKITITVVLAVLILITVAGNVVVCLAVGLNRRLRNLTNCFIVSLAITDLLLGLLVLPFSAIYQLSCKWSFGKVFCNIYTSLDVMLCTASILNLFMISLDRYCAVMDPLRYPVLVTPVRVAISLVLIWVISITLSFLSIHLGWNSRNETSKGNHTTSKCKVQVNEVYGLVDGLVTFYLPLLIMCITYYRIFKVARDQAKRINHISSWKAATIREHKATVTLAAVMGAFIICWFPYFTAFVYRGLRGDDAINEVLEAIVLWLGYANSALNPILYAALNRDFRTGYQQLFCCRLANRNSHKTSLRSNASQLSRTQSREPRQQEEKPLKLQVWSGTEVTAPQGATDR
Description: as §1

H3 = molecular target: T29, H3 (Homo sapiens, UniProt Q9Y5N1); assay: Primary radioligand binding screen
T29 construct: expressed in transfected cells
Description: as §1

M1 = molecular target: T30, M1 (Homo sapiens, UniProt P11229); assay: Primary radioligand binding screen
T30 construct: expressed in transfected cells
Description: as §1

M2 = molecular target: T31, M2 (Homo sapiens, UniProt P08172); assay: Primary radioligand binding screen
T31 construct: expressed in transfected cells
T31 sequence (P08172 whole entry): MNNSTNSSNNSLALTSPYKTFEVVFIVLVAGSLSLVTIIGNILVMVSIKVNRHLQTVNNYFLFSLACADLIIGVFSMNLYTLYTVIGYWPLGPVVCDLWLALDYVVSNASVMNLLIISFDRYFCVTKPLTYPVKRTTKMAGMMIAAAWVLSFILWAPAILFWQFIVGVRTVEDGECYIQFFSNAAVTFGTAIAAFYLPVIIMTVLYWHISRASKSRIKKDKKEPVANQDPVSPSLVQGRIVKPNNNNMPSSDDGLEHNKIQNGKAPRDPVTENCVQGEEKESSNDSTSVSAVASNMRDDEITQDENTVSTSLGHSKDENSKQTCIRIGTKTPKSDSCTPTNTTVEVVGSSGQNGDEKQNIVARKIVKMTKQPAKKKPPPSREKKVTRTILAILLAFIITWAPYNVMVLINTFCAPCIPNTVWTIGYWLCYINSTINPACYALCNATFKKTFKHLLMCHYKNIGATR
Description: as §1

M3 = molecular target: T32, M3 (Homo sapiens, UniProt P20309); assay: Primary radioligand binding screen
T32 construct: expressed in transfected cells
Description: as §1

M4 = molecular target: T33, M4 (Homo sapiens, UniProt P08173); assay: Primary radioligand binding screen
T33 construct: expressed in transfected cells
Description: as §1

M5 = molecular target: T34, M5 (Homo sapiens, UniProt P08912); assay: Primary radioligand binding screen
T34 construct: expressed in transfected cells
Description: as §1

NET = molecular target: T35, NET (Homo sapiens, UniProt P23975); assay: Primary radioligand binding screen
T35 construct: expressed in transfected cells
T35 sequence (P23975 whole entry): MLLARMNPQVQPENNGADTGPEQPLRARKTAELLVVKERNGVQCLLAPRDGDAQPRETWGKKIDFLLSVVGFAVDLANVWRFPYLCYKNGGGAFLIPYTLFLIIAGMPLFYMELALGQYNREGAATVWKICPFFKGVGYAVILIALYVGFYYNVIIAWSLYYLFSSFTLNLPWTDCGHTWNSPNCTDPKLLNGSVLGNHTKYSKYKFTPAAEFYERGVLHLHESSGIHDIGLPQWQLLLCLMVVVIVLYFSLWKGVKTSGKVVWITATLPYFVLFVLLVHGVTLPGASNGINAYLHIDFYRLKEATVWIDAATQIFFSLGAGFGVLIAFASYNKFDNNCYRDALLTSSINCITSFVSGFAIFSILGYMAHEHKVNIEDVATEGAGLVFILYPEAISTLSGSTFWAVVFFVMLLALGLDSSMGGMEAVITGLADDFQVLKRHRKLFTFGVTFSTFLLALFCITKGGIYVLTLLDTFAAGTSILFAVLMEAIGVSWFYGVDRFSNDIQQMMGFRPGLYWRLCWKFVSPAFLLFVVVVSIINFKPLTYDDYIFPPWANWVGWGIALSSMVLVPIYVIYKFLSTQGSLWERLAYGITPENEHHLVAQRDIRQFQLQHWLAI
Description: as §1

SERT = molecular target: T36, SERT (Homo sapiens, UniProt P31645); assay: Primary radioligand binding screen
T36 construct: expressed in transfected cells
Description: as §1

Sigma 2 = Sigma 2 (Rattus norvegicus, UniProt Q5U3Y7); assay: Primary radioligand binding screen
Description: as §1

kappa opioid receptor = kappa opioid receptor (Homo sapiens, UniProt P41145); format: binding; design: expressed in transfected cells; details: mean±SE; read-out: Ki KOR
Sequence of kappa opioid receptor (P41145 whole entry): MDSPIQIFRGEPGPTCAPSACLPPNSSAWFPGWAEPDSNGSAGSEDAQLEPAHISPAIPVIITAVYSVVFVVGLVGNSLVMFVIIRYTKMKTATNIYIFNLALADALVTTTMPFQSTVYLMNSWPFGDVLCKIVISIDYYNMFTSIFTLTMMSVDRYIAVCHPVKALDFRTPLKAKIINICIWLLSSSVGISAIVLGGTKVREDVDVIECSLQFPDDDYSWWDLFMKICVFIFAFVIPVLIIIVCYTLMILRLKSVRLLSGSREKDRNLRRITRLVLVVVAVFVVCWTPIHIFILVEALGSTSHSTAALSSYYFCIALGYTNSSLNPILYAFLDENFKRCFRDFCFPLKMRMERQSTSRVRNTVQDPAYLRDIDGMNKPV
Description: The secondary binding assay was performed only when the inhibition in the primary screen was over 50%. A secondary binding assay was utilized to determine the binding affinity for the identified receptor.
50 μL of a crude membrane fraction of cells expressing the respective receptors were applied to each well. Reaction incubation, harvesting and radioactivity measurement from the primary assay were repeated. Affinity is expressed as pKi (−log Ki).

Structure (SMILES): C[C@@]12CCCCC[C@@H](Cc3ccc(O)cc31)[C@@H]2N [Dezocine, (−)-13β-amino-5,6,7,8,9,10,11,12-octahydro-5α-methyl-5,11-methanobenxocyclodecen-31-ol, hydrobromide]
- inhibition at 10 µM (5-HT1A): 43.5%
- inhibition at 10 µM (5-HT1B): -14.1%
- inhibition at 10 µM (5-HT1D): -0.4%
- inhibition at 10 µM (5-HT1E): -2.4%
- inhibition at 10 µM (5-HT2A): -10%
- inhibition at 10 µM (5-HT2B): -11.9%
- inhibition at 10 µM (5-HT2C): 19.8%
- inhibition at 10 µM (5-HT3): 11.8%
- inhibition at 10 µM (5-HT6): 10.9%
- inhibition at 10 µM (5-HT7): 20.9%
- inhibition at 10 µM (5-hT5A): 3.4%
- inhibition at 10 µM (Alpha1A): 4.9%
- inhibition at 10 µM (Alpha1B): 14.7%
- inhibition at 10 µM (Alpha1D): 8.9%
- inhibition at 10 µM (Alpha2A): 40.9%
- inhibition at 10 µM (Alpha2B): 21.2%
- inhibition at 10 µM (Alpha2C): -7.9%
- inhibition at 10 µM (Beta1): 10%
- inhibition at 10 µM (Beta2): -4.5%
- inhibition at 10 µM (Beta3): -15%
- inhibition at 10 µM (D1): 11.5%
- inhibition at 10 µM (D2): -3.8%
- inhibition at 10 µM (D3): -9.4%
- inhibition at 10 µM (D4): -5.1%
- inhibition at 10 µM (D5): -6.3%
- inhibition at 10 µM (DAT): 15.8%
- inhibition at 10 µM (DOR): 58.5%
- inhibition at 10 µM (H2): 33.6%
- inhibition at 10 µM (H3): -1.6%
- inhibition at 10 µM (M1): -6.8%
- inhibition at 10 µM (M2): 31.5%
- inhibition at 10 µM (M3): -3.4%
- inhibition at 10 µM (M4): 2.5%
- inhibition at 10 µM (M5): 19.4%
- inhibition at 10 µM (NET): 86.4%
- inhibition at 10 µM (SERT): 97.7%
- inhibition at 10 µM (Sigma 2): 6.3%
- Ki (kappa opioid receptor): 31.9 ± 1.9 nM
